Measurements from patent publication US8236820B2, “Anti-inflammatory compounds and uses thereof” (priority 2007, dated 2012).

Legend:
SW480 colon cancer cells = assay: Nude mice xenograft study; format: in vivo; conditions: 50 mg/kg/day gavage, 14 days
Experimental: Nude mice xenograft study: Female nude mice CByJ.Cg-Foxn1 (5-6 weeks-old) were inoculated subcutaneously in their lower right flank with 1.5×10^6 SW480 colon cancer cells in a volume of 100 μl (containing 50% matrigel in PBS). Seven days later, animals were randomized into two groups (8 mice/group): group 1 received vehicle (1% (w/v) carboxy methylcellulose); group 2 received 50 mg/kg/day phospho-sulindac I. All drugs were administered in a solution of 1% (w/v) carboxy methylcellulose by gavage once daily (phospho-sulindac I and sulindac concentrations are equimolar). Tumors were measured twice a week with a digital microcaliper, and tumor volume (TV) was calculated using the formula: TV=[L×W×(L+W/2)×0.56], where L=length and W=width of tumor. After 14 days of treatment, animals were sacrificed, and tumors were removed and weighed.

HT-29 cells = assay: Cell cycle analysis, DFMO and phospho-sulindac I, 48 h; format: cell-based, human; conditions: DFMO 5 mM, phospho-sulindac I 40 μM
Experimental: A—Left panel: Cell viability was determined in HT-29 (full bars) and SW-480 (empty bars) cells after 48 h of incubation with 5 mM DFMO, 40 μM phospho-sulindac (P-S) or simultaneous combination of DFMO and P-S. Data are expressed as percentage of control cells (cells incubated only with DMSO). […] Right panel: In this isobologram the additivity line connects the IC50 value of each compound used alone. A and B represent two different dose pairs of each compound (their respective concentrations are shown in parentheses). The location of both A and B below the additivity line signifies synergy. […] DNA content was determined from propidium iodide (PI) fluorescence. C—Apoptosis and necrosis were determined by combined staining with annexin V and PI and determining fluorescence intensity. The percentages of apoptotic cells were determined using the dual staining with annexin V and propidium iodide and are indicated in each quadrant: left bottom quadrant, viable cells (annexin V-negative/PI-negative); right bottom quadrant, early apoptotic cells (annexin V-positive/PI-negative); right upper quadrant, late apoptotic cells (annexin V-positive/PI-positive); left upper quadrant, necrotic cells (annexin V-negative, PI-positive). […]

`CCOP(=O)(OCC)OCCCCOC(=O)CC1=C(C)/C(=C/c2ccc([S+](C)[O-])cc2)c2ccc(F)cc21` (centres unmarked) [Phospho-sulindac I] was tested. Which “tolerability in xenograft study” value (SW480 colon cancer cells) did it give?
Its value is “no weight loss or other signs of toxicity were observed”.

What about the mean tumor weight (SW480 colon cancer cells; mean±SEM, vehicle 0.246±0.041) of the same compound?
The mean tumor weight was 0.097±0.018.

And the “reduction in tumor weight” value (SW480 colon cancer cells; vs vehicle, p<0.05)?
Its value is 60%.

And the G1 population arrest (HT-29 cells)?
Its G1 population arrest is 75%.

What about the S phase (HT-29 cells) of the same compound?
The S phase was 13.6%.
